Test system: MV-4-11 cells
Assay: Gene expression microarray analysis (Affymetrix PrimeView) and GSEA
Type: cell-based, human
Set-up: RFU PODN (11730768_x_at) / Fold change /veh PODN (11730768_x_at) / RFU LINC00158 (11744669_a_at) / Fold change /veh LINC00158 (11744669_a_at) / RFU DUSP10 (11751237_a_at) / Fold change /veh DUSP10 (11751237_a_at) / RFU ID3 (11757404_x_at) / Fold change /veh ID3 (11757404_x_at) / RFU PLEKHG5 (11737974_s_at) / Fold change /veh PLEKHG5 (11737974_s_at) / RFU LRRC4B (11730491_at) / Fold change /veh LRRC4B (11730491_at) / RFU GIMAP4 (11747438_a_at) / Fold change /veh GIMAP4 (11747438_a_at) / RFU KRT8 (11758183_x_at) / Fold change /veh KRT8 (11758183_x_at) / RFU CNN1 (11734310_a_at) / Fold change /veh CNN1 (11734310_a_at) / RFU VPS37D (11726825_at) / Fold change /veh VPS37D (11726825_at) / RFU C10orf10 (11716522_x_at) / Fold change /veh C10orf10 (11716522_x_at) / RFU KIR2DL2 /// KIR2DL4 /// KIR2DL5A /// KIR2DL5B /// KIR2DS1 /// KIR2DS2 /// KIR2DS3 /// KIR2DS4 /// KIR3DL3 /// KIR3DL3 /// KIR3DS1 (11738374_at) / Fold change /veh KIR2DL2 /// KIR2DL4 /// KIR2DL5A /// KIR2DL5B /// KIR2DS1 /// KIR2DS2 /// KIR2DS3 /// KIR2DS4 /// KIR3DL3 /// KIR3DL3 /// KIR3DS1 (11738374_at) / RFU C1QL1 (11718748_at) / Fold change /veh C1QL1 (11718748_at) / RFU TMPRSS4 (11747572_a_at) / Fold change /veh TMPRSS4 (11747572_a_at) / RFU HAMP (11756126_x_at) / Fold change /veh HAMP (11756126_x_at) / RFU RNFT2 (11725882_a_at) / Fold change /veh RNFT2 (11725882_a_at) / RFU NR4A2 (11747474_a_at) / Fold change /veh NR4A2 (11747474_a_at) / RFU ABCC12 (11746883_a_at) / Fold change /veh ABCC12 (11746883_a_at) / RFU TMEM136 (11760407_x_at) / Fold change /veh TMEM136 (11760407_x_at) / RFU CLDN22 /// WWC2 (11732394_at) / Fold change /veh CLDN22 /// WWC2 (11732394_at) / RFU HLA-DPB1 (11760878_x_at) / Fold change /veh HLA-DPB1 (11760878_x_at) / RFU SPINT1 (11716480_a_at) / Fold change /veh SPINT1 (11716480_a_at) / RFU GAP43 (11754022_s_at) / Fold change /veh GAP43 (11754022_s_at) / RFU A4GNT (11735810_at) / Fold change /veh A4GNT (11735810_at) / RFU PRB3 (11715151_x_at) / Fold change /veh PRB3 (11715151_x_at) / RFU TUBB4B (11761932_at) / Fold change /veh TUBB4B (11761932_at) / RFU CAPN14 (11732068_a_at) / Fold change /veh CAPN14 (11732068_a_at) / RFU TMCC2 (11721928_a_at) / Fold change /veh TMCC2 (11721928_a_at) / RFU IRGQ (11745062_a_at) / Fold change /veh IRGQ (11745062_a_at) / RFU FAM174B (11720279_a_at) / Fold change /veh FAM174B (11720279_a_at) / RFU TMPRSS4 (11748680_a_at) / Fold change /veh TMPRSS4 (11748680_a_at) / RFU FAM212B (11763350_a_at) / Fold change /veh FAM212B (11763350_a_at) / RFU PLEKHG5 (11743358_a_at) / Fold change /veh PLEKHG5 (11743358_a_at) / RFU ZSCAN30 (11745921_a_at) / Fold change /veh ZSCAN30 (11745921_a_at) / RFU CMKLR1 (11741424_a_at) / Fold change /veh CMKLR1 (11741424_a_at) / RFU LOC101060620 /// MAPK8IP1 (11723275_at) / Fold change /veh LOC101060620 /// MAPK8IP1 (11723275_at) / RFU SPTSSB (11747773_x_at) / Fold change /veh SPTSSB (11747773_x_at) / RFU PRSS12 (11739890_at) / Fold change /veh PRSS12 (11739890_at) / RFU BIN1 (11741810_x_at) / Fold change /veh BIN1 (11741810_x_at) / RFU WNT11 (11732464_a_at) / Fold change /veh WNT11 (11732464_a_at) / RFU C10orf10 (11716521_a_at) / Fold change /veh C10orf10 (11716521_a_at) / RFU C5orf56 (11738089_at) / Fold change /veh C5orf56 (11738089_at) / RFU CYB561 (11721691_x_at) / Fold change /veh CYB561 (11721691_x_at) / RFU ANKRD19P (11752326_a_at) / Fold change /veh ANKRD19P (11752326_a_at) / RFU OR2T12 /// OR2T33 /// OR2T8 (11738714_s_at) / Fold change /veh OR2T12 /// OR2T33 /// OR2T8 (11738714_s_at) / RFU VCAN (11748164_a_at) / Fold change /veh VCAN (11748164_a_at) / RFU JSRP1 (11732532_at) / Fold change /veh JSRP1 (11732532_at) / RFU KRTAP10-11 (11738290_x_at) / Fold change /veh KRTAP10-11 (11738290_x_at) / RFU MYO3A (11730013_a_at) / Fold change /veh MYO3A (11730013_a_at) / RFU EBF3 (11725865_a_at) / Fold change /veh EBF3 (11725865_a_at) / RFU CAMK2N1 (11719241_x_at) / Fold change /veh CAMK2N1 (11719241_x_at) / RFU C5orf56 (11738088_a_at) / Fold change /veh C5orf56 (11738088_a_at) / RFU OLFML3 (11715873_a_at) / Fold change /veh OLFML3 (11715873_a_at) / RFU LOC100653217 /// NTM (11731650_a_at) / Fold change /veh LOC100653217 /// NTM (11731650_a_at) / RFU MAPK11 (11762145_a_at) / Fold change /veh MAPK11 (11762145_a_at) / RFU FIZ1 (11724087_x_at) / Fold change /veh FIZ1 (11724087_x_at) / RFU OASL (11726364_x_at) / Fold change /veh OASL (11726364_x_at) / RFU SOX15 (11748057_x_at) / Fold change /veh SOX15 (11748057_x_at) / RFU CD79A (11719716_a_at) / Fold change /veh CD79A (11719716_a_at) / RFU HIST1H1D (11736915_at) / Fold change /veh HIST1H1D (11736915_at) / RFU CASKIN2 (11723855_a_at) / Fold change /veh CASKIN2 (11723855_a_at) / RFU LOC730098 (11760151_x_at) / Fold change /veh LOC730098 (11760151_x_at) / RFU OR4N2 (11742367_at) / Fold change /veh OR4N2 (11742367_at) / RFU PRRT2 (11749266_a_at) / Fold change /veh PRRT2 (11749266_a_at) / RFU SNX32 (11753110_a_at) / Fold change /veh SNX32 (11753110_a_at) / RFU CDHR5 (11726645_a_at) / Fold change /veh CDHR5 (11726645_a_at) / RFU RCAN1 (11760418_a_at) / Fold change /veh RCAN1 (11760418_a_at) / RFU FAM167A (11723789_a_at) / Fold change /veh FAM167A (11723789_a_at) / RFU FAM26E (11764081_at) / Fold change /veh FAM26E (11764081_at) / RFU ISYNA1 (11749810_s_at) / Fold change /veh ISYNA1 (11749810_s_at) / RFU ACY1 (11761880_at) / Fold change /veh ACY1 (11761880_at) / RFU 11764098_at / Fold change /veh 11764098_at / RFU SAMD14 (11745864_x_at) / Fold change /veh SAMD14 (11745864_x_at) / RFU NPB (11741838_a_at) / Fold change /veh NPB (11741838_a_at) / RFU TMPRSS6 (11731388_a_at) / Fold change /veh TMPRSS6 (11731388_a_at) / RFU KRTAP10-2 (11738614_at) / Fold change /veh KRTAP10-2 (11738614_at) / RFU ARHGAP8 /// PRR5-ARHGAP8 (11727945_x_at) / Fold change /veh ARHGAP8 /// PRR5-ARHGAP8 (11727945_x_at) / RFU KRTAP5-7 /// NADSYN1 (11734609_at) / Fold change /veh KRTAP5-7 /// NADSYN1 (11734609_at) / RFU RASL12 (11751679_a_at) / Fold change /veh RASL12 (11751679_a_at) / RFU CDKN2B (11736163_a_at) / Fold change /veh CDKN2B (11736163_a_at) / RFU PRF1 (11729649_at) / Fold change /veh PRF1 (11729649_at) / RFU, ZNF638 /// ZNF638-IT1 / Fold change vs veh, ZNF638 /// ZNF638-IT1 / RFU, PANK3 / Fold change vs veh, PANK3 / RFU, SH3YL1 / Fold change vs veh, SH3YL1 / RFU, ZEB2 / Fold change vs veh, ZEB2 / RFU, NRIP1 / Fold change vs veh, NRIP1 / RFU, PTTG1IP / Fold change vs veh, PTTG1IP / RFU, CAPN2 / Fold change vs veh, CAPN2 / RFU, MED14 / Fold change vs veh, MED14 / RFU, SNORA58 / Fold change vs veh, SNORA58 / RFU, C1orf63 / Fold change vs veh, C1orf63 / RFU, LRRFIP1 / Fold change vs veh, LRRFIP1 / RFU, NDUFAF7 / Fold change vs veh, NDUFAF7 / RFU, SLC12A2 / Fold change vs veh, SLC12A2 / RFU, IBTK / Fold change vs veh, IBTK / RFU, ESF1 / Fold change vs veh, ESF1 / Fold change vs veh, TMEM50B / RFU, TAOK1 / Fold change vs veh, TAOK1 / RFU, ACBD3 / Fold change vs veh, ACBD3 / RFU, TMA16 / Fold change vs veh, TMA16 / RFU, RWDD3 / Fold change vs veh, RWDD3 / RFU, BCAT1 / Fold change vs veh, BCAT1 / RFU, EDEM3 / Fold change vs veh, EDEM3 / RFU, TMEM33 / Fold change vs veh, TMEM33 / RFU, WDR75 / Fold change vs veh, WDR75 / RFU, AHCTF1 / Fold change vs veh, AHCTF1 / RFU, TFRC / Fold change vs veh, TFRC / RFU, ZDHHC17 / Fold change vs veh, ZDHHC17 / RFU, NOM1 / Fold change vs veh, NOM1 / RFU, ARL8B / Fold change vs veh, ARL8B / RFU, ZBTB11 / Fold change vs veh, ZBTB11 / RFU, TAMM41 / Fold change vs veh, TAMM41 / RFU, KIAA1704 /// LOC100996395 / Fold change vs veh, KIAA1704 /// LOC100996395 / RFU, ING1 / Fold change vs veh, ING1 / RFU, TRMT61B / Fold change vs veh, TRMT61B / RFU, FUBP3 / Fold change vs veh, FUBP3 / RFU, TP53 / Fold change vs veh, TP53 / RFU, TNKS2 / Fold change vs veh, TNKS2 / RFU, ZFP14 / Fold change vs veh, ZFP14 / RFU, ACTR2 / Fold change vs veh, ACTR2 / RFU, PPP3R1 / Fold change vs veh, PPP3R1 / RFU, PIK3R1 / Fold change vs veh, PIK3R1 / RFU, HNRNPA1 / Fold change vs veh, HNRNPA1 / RFU, RNF170 / Fold change vs veh, RNF170 / RFU, ZNF28 / Fold change vs veh, ZNF28 / RFU, RNGTT / Fold change vs veh, RNGTT / RFU, OGT / Fold change vs veh, OGT / RFU, BRD1 / Fold change vs veh, BRD1 / RFU, MARS / Fold change vs veh, MARS / RFU, ZNF655 / Fold change vs veh, ZNF655 / RFU, FAHD1 / Fold change vs veh, FAHD1 / RFU, BDP1 / Fold change vs veh, BDP1 / RFU, LRRCC1 / Fold change vs veh, LRRCC1 / RFU, ARID1A / Fold change vs veh, ARID1A / RFU, ZNF146 / Fold change vs veh, ZNF146 / RFU, ZNF330 / Fold change vs veh, ZNF330 / RFU, GPN3 / Fold change vs veh, GPN3 / RFU, C9orf123 / Fold change vs veh, C9orf123 / RFU, N4BP2L2 / Fold change vs veh, N4BP2L2 / RFU, ARFIP1 / Fold change vs veh, ARFIP1 / RFU, FAM179B / Fold change vs veh, FAM179B / RFU, BCL10 / Fold change vs veh, BCL10 / RFU, UHRF1BP1L / Fold change vs veh, UHRF1BP1L / RFU, BET1 / Fold change vs veh, BET1 / RFU, CNOT2 / Fold change vs veh, CNOT2 / RFU, ZNF268 / Fold change vs veh, ZNF268 / Fold change vs veh, ZNF507 / RFU, DGCR2 / Fold change vs veh, DGCR2 / RFU, WDSUB1 / Fold change vs veh, WDSUB1 / Fold change vs veh, HSP90B1 /// MIR3652 / RFU, ADSS / Fold change vs veh, ADSS / RFU, GK / Fold change vs veh, GK / RFU, ZNF148 / Fold change vs veh, ZNF148 / RFU, TAF9 / Fold change vs veh, TAF9 / RFU, SLC1A5 / Fold change vs veh, SLC1A5 / RFU, SLMO2 / Fold change vs veh, SLMO2 / RFU, ABCC4 / Fold change vs veh, ABCC4 / RFU, LOC101060439 /// RAP1B / Fold change vs veh, LOC101060439 /// RAP1B / RFU, RFX7 / Fold change vs veh, RFX7 / RFU, GTPBP10 / Fold change vs veh, GTPBP10 / RFU, CNEP1R1 / Fold change vs veh, CNEP1R1 / RFU, BIVM-ERCC5 /// ERCC5 / Fold change vs veh, BIVM-ERCC5 /// ERCC5 / RFU, ILF3 / Fold change vs veh, ILF3 / RFU 11762660_at / Fold change /veh 11762660_at / RFU VCAN (11757783_s_at) / Fold change /veh VCAN (11757783_s_at) / RFU DDX43 (11728927_at) / Fold change /veh DDX43 (11728927_at) / RFU KRT8 (11758188_x_at) / Fold change /veh KRT8 (11758188_x_at) / RFU NKD1 (11759106_at) / Fold change /veh NKD1 (11759106_at) / RFU SRD5A1 (11742802_a_at) / Fold change /veh SRD5A1 (11742802_a_at) / RFU TPSAB1 /// TPSB2 (11721975_s_at) / Fold change /veh TPSAB1 /// TPSB2 (11721975_s_at) / RFU GSTM3 (11746129_a_at) / Fold change /veh GSTM3 (11746129_a_at) / RFU IL23R (11737362_x_at) / Fold change /veh IL23R (11737362_x_at) / RFU TMEM51 (11727254_a_at) / Fold change /veh TMEM51 (11727254_a_at) / RFU PIWIL2 (11732686_x_at) / Fold change /veh PIWIL2 (11732686_x_at) / RFU ORM1 (11744905_x_at) / Fold change /veh ORM1 (11744905_x_at) / RFU CCDC152 (11743942_at) / Fold change /veh CCDC152 (11743942_at) / RFU ECM1 (11717891_a_at) / Fold change /veh ECM1 (11717891_a_at) / RFU IL23R (11748794_a_at) / Fold change /veh IL23R (11748794_a_at) / RFU TNFAIP8L3 (11732012_x_at) / Fold change /veh TNFAIP8L3 (11732012_x_at) / RFU MBOAT4 (11741988_at) / Fold change /veh MBOAT4 (11741988_at) / RFU 11764193_at / Fold change /veh 11764193_at / RFU TMEM53 (11763286_at) / Fold change /veh TMEM53 (11763286_at) / RFU MAGEB2 (11727129_at) / Fold change /veh MAGEB2 (11727129_at) / RFU TMEM200A (11744735_a_at) / Fold change /veh TMEM200A (11744735_a_at) / RFU CCDC152 (11751479_a_at) / Fold change /veh CCDC152 (11751479_a_at) / RFU FAM211A (11726209_a_at) / Fold change /veh FAM211A (11726209_a_at) / RFU RGS16 (11746705_a_at) / Fold change /veh RGS16 (11746705_a_at) / RFU VCAN (11755009_s_at) / Fold change /veh VCAN (11755009_s_at) / RFU RHOB (11743442_s_at) / Fold change /veh RHOB (11743442_s_at) / RFU RGS16 (11720943_a_at) / Fold change /veh RGS16 (11720943_a_at) / RFU RGS16 (11720944_at) / Fold change /veh RGS16 (11720944_at) / RFU, VPS4B / Fold change vs veh, VPS4B / RFU, CREB1 / Fold change vs veh, CREB1 / RFU, DNAJC13 / Fold change vs veh, DNAJC13 / RFU, GNAQ / Fold change vs veh, GNAQ / RFU, CDK5R1 / Fold change vs veh, CDK5R1 / RFU, ZRANB3 / Fold change vs veh, ZRANB3 / RFU, CUL4A / Fold change vs veh, CUL4A / RFU, CCNY / Fold change vs veh, CCNY / RFU, UFL1 / Fold change vs veh, UFL1 / RFU, COG3 / Fold change vs veh, COG3 / RFU, DIAPH2 / Fold change vs veh, DIAPH2 / RFU, SKA2 / Fold change vs veh, SKA2 / RFU, AFF3 / Fold change vs veh, AFF3 / RFU, LMF1 / Fold change vs veh, LMF1 / RFU, IPO11 / Fold change vs veh, IPO11 / RFU, DFFB / Fold change vs veh, DFFB / RFU, FOXP1 / Fold change vs veh, FOXP1 / RFU, CARD8 / Fold change vs veh, CARD8 / RFU, STRN3 / Fold change vs veh, STRN3 / RFU, ADK / Fold change vs veh, ADK / RFU, RASSF2 / Fold change vs veh, RASSF2 / RFU, WIPF1 / Fold change vs veh, WIPF1 / RFU, LARP1B / Fold change vs veh, LARP1B / RFU, RASA1 / Fold change vs veh, RASA1 / RFU, RB1 / Fold change vs veh, RB1 / RFU, PPFIA1 / Fold change vs veh, PPFIA1 / RFU, MAT2A / Fold change vs veh, MAT2A / RFU, CCT5 / Fold change vs veh, CCT5 / RFU, WDR92 / Fold change vs veh, WDR92 / RFU, CUX1 / Fold change vs veh, CUX1 / RFU, TTC7A / Fold change vs veh, TTC7A / RFU, TMEM135 / Fold change vs veh, TMEM135 / RFU, DEPTOR / Fold change vs veh, DEPTOR / RFU, CPM / Fold change vs veh, CPM / RFU, DNAJB6 / Fold change vs veh, DNAJB6 / RFU, CACNA2D3 / Fold change vs veh, CACNA2D3 / RFU, DTX4 / Fold change vs veh, DTX4 / RFU, TFCP2 / Fold change vs veh, TFCP2 / RFU, GMCL1 /// GMCL1P1 / Fold change vs veh, GMCL1 /// GMCL1P1 / RFU, AEBP2 / Fold change vs veh, AEBP2 / RFU, SNHG1 /// SNORD22 /// SNORD25 /// SNORD26 /// SNORD27 /// SNORD28 /// SNORD29 /// SNORD31 / Fold change vs veh, SNHG1 /// SNORD22 /// SNORD25 /// SNORD26 /// SNORD27 /// SNORD28 /// SNORD29 /// SNORD31 / Fold change (Aza/veh), C12orf56 (ProbeSet 11735607_a_at) / Fold change (ACY-1035/veh), C12orf56 (ProbeSet 11735607_a_at) / Fold change (Aza/veh), FGFR1OP (ProbeSet 11751329_s_at) / Fold change (ACY-1035/veh), FGFR1OP (ProbeSet 11751329_s_at) / Fold change (Aza/veh), VPS36 (ProbeSet 11739960_a_at) / Fold change (ACY-1035/veh), VPS36 (ProbeSet 11739960_a_at) / RFU SYPL1 (11715823_x_at) / Fold change /veh SYPL1 (11715823_x_at) / RFU IGFBP7 (11715501_s_at) / Fold change /veh IGFBP7 (11715501_s_at) / RFU REEP3 (11722064_at) / Fold change /veh REEP3 (11722064_at) / RFU IGLL1 (11728026_x_at) / Fold change /veh IGLL1 (11728026_x_at): dose or concentration left out as unconfirmed
Settings: MV-4-11 cells, 48 hours

Nc1ccc(-c2cccs2)cc1NC(=O)c1ccc2c(c1)cc(C1CC1)n2CCN1CCOCC1 [ACY-1035]
Fold change /veh DUSP10 (11751237_a_at): 1.17
